Laboratory results taken from ChEMBL document CHEMBL3044778, “Lethal and sublethal effects of buprofezin and imidacloprid on the whitefly parasitoid Encarsia inaron (Hymenoptera: Aphelinidae)” (2012).
Values after ≈ are worked out from the molar mass of the structure shown. Active and inactive are the calls of the source. No cut-off for these calls is given here.

What was measured:
Encarsia inaron [1] = experiment: Insecticidal activity against Encarsia inaron treated at adult stages at 2000 ppm assessed as insect total fecundity; assay type: functional, organism-based
Encarsia inaron [2] = experiment: Insecticidal activity against Encarsia inaron treated at pupal stages at 2000 ppm assessed as insect longevity (reference value: 8.7 days); assay type: functional, Pupal stage
Encarsia inaron [3] = experiment: Insecticidal activity against Encarsia inaron treated at adult stages assessed as mean generation time at 2000 ppm; assay type: functional, organism-based
Encarsia inaron [4] = experiment: Insecticidal activity against Encarsia inaron treated at adult stages at 2000 ppm assessed as insect longevity (reference value: 8.95 days); assay type: functional
Encarsia inaron [5] = experiment: Insecticidal activity against Encarsia inaron treated at adult stages assessed as doubling time at 2000 ppm; assay type: functional, organism-based
Encarsia inaron [6] = experiment: Insecticidal activity against Encarsia inaron treated at pupal stages assessed as intrinsic rate of increase at 2000 ppm; assay type: functional, organism-based; conditions: Pupal stage
Encarsia inaron [7] = experiment: Insecticidal activity against Encarsia inaron treated at larval stages assessed as increase in net reproductive rate at 31.25 ppm; assay type: functional, organism-based; conditions: Larval stage
Encarsia inaron [8] = experiment: Insecticidal activity against Encarsia inaron infested cucumber plants assessed as adult parasitoid emergence from parasitised host nymphs treated at larval stages at 400 g ai/L SC measured 10 days post compound treatment (reference value: 79.60 %); assay type: functional, Larval stage
Encarsia inaron [9] = experiment: Insecticidal activity against Encarsia inaron treated at larval stages assessed as mean generation time at 31.25 ppm; assay type: functional, organism-based; conditions: Larval stage
Encarsia inaron [10] = experiment: Insecticidal activity against Encarsia inaron treated at pupal stages at 2000 ppm assessed as insect total fecundity; assay type: functional, organism-based; conditions: Pupal stage
Encarsia inaron [11] = experiment: Insecticidal activity against Encarsia inaron treated at larval stages at 31.25 ppm assessed as sex ratio (reference value: 0.72 no unit); assay type: functional, Larval stage
Encarsia inaron [12] = experiment: Insecticidal activity against Encarsia inaron treated at larval stages at 31.25 ppm assessed as insect longevity (reference value: 5.60 days); assay type: functional, Larval stage
Encarsia inaron [13] = experiment: Insecticidal activity against Encarsia inaron adults reared on compound treated freshly cut cucumber leaves assessed as induction if insect mortality measured 48 hr post compound treatment; assay type: functional
Encarsia inaron [14] = experiment: Insecticidal activity against Encarsia inaron treated at adult stages at 2000 ppm assessed as sex ratio (reference value: 0.72 no unit); assay type: functional
Encarsia inaron [15] = experiment: Insecticidal activity against Encarsia inaron treated at pupal stages assessed as finite rate increase at 2000 ppm; assay type: functional, organism-based; conditions: Pupal stage
Encarsia inaron [16] = experiment: Insecticidal activity against Encarsia inaron treated at adult stages at 2000 ppm assessed as insects eggs level per day (reference value: 2.33 egg/day); assay type: functional
Encarsia inaron [17] = experiment: Insecticidal activity against Encarsia inaron infested cucumber plants assessed as adult parasitoid emergence from parasitised host nymphs treated at pupae stages at 400 g ai/L SC measured 10 days post compound treatment (reference value: 79.60 %); assay type: functional
Encarsia inaron [18] = experiment: Insecticidal activity against Encarsia inaron treated at pupal stages assessed as mean generation time at 2000 ppm; assay type: functional, organism-based; conditions: Pupal stage
Encarsia inaron [19] = experiment: Insecticidal activity against Encarsia inaron treated at larval stages at 31.25 ppm assessed as insects eggs level per day (reference value: 2.98 egg/day); assay type: functional, Larval stage
Encarsia inaron [20] = experiment: Insecticidal activity against Encarsia inaron treated at larval stages assessed as intrinsic rate of increase at 31.25 ppm; assay type: functional, organism-based; conditions: Larval stage
Encarsia inaron [21] = experiment: Insecticidal activity against Encarsia inaron treated at larval stages at 31.25 ppm assessed as insect total fecundity; assay type: functional, organism-based; conditions: Larval stage
Encarsia inaron [22] = experiment: Insecticidal activity against Encarsia inaron treated at pupal stages at 2000 ppm assessed as insects eggs level per day (reference value: 2.37 egg/day); assay type: functional, Pupal stage
Encarsia inaron [23] = experiment: Insecticidal activity against Encarsia inaron treated at adult stages assessed as increase in net reproductive rate at 2000 ppm; assay type: functional, organism-based
Encarsia inaron [24] = experiment: Insecticidal activity against Encarsia inaron treated at adult stages assessed as intrinsic rate of increase at 2000 ppm; assay type: functional, organism-based
Encarsia inaron [25] = experiment: Insecticidal activity against Encarsia inaron treated at larval stages assessed as finite rate of increase at 31.25 ppm; assay type: functional, organism-based; conditions: Larval stage
Encarsia inaron [26] = experiment: Insecticidal activity against Encarsia inaron treated at pupal stages at 2000 ppm assessed as sex ratio (reference value: 0.68 no unit); assay type: functional, Pupal stage
Encarsia inaron [27] = experiment: Insecticidal activity against Encarsia inaron treated at adult stages assessed as finite rate of increase at 2000 ppm; assay type: functional, organism-based
Encarsia inaron [28] = experiment: Insecticidal activity against Encarsia inaron treated at pupal stages assessed as net reproductive rate at 2000 ppm; assay type: functional, organism-based; conditions: Pupal stage
Encarsia inaron [29] = experiment: Insecticidal activity against Encarsia inaron treated at adult stages assessed as finite rate of increase at 23.37 ppm; assay type: functional, organism-based
Encarsia inaron [30] = experiment: Insecticidal activity against Encarsia inaron treated at adult stages assessed as mean generation time at 23.37 ppm; assay type: functional, organism-based
Encarsia inaron [31] = experiment: Insecticidal activity against Encarsia inaron treated at pupal stages at 62.5 ppm assessed as sex ratio (reference value: 0.68 no unit); assay type: functional, Pupal stage
Encarsia inaron [32] = experiment: Insecticidal activity against Encarsia inaron treated at larval stages assessed as increase in net reproductive rate at 62.5 ppm; assay type: functional, organism-based; conditions: Larval stage
Encarsia inaron [33] = experiment: Insecticidal activity against Encarsia inaron treated at pupal stages assessed as intrinsic rate of increase at 62.5 ppm; assay type: functional, organism-based; conditions: Pupal stage
Encarsia inaron [34] = experiment: Insecticidal activity against Encarsia inaron treated at adult stages assessed as increase in net reproductive rate at 23.37 ppm; assay type: functional, organism-based
Encarsia inaron [35] = experiment: Insecticidal activity against Encarsia inaron treated at pupal stages at 62.5 ppm assessed as insect total fecundity; assay type: functional, organism-based; conditions: Pupal stage
Encarsia inaron [36] = experiment: Insecticidal activity against Encarsia inaron treated at pupal stages assessed as mean generation time at 62.5 ppm; assay type: functional, organism-based; conditions: Pupal stage
Encarsia inaron [37] = experiment: Insecticidal activity against Encarsia inaron infested cucumber plants assessed as adult parasitoid emergence from parasitised host nymphs treated at pupae stages at 350 g ai/L SC measured 10 days post compound treatment (reference value: 79.60 %); assay type: functional
Encarsia inaron [38] = experiment: Insecticidal activity against Encarsia inaron treated at adult stages assessed as doubling time at 23.37 ppm; assay type: functional, organism-based
Encarsia inaron [39] = experiment: Insecticidal activity against Encarsia inaron treated at adult stages assessed as intrinsic rate of increase at 23.37 ppm; assay type: functional, organism-based
Encarsia inaron [40] = experiment: Insecticidal activity against Encarsia inaron treated at adult stages at 23.37 ppm assessed as insects eggs level per day (reference value: 2.33 egg/day); assay type: functional
Encarsia inaron [41] = experiment: Insecticidal activity against Encarsia inaron treated at larval stages at 62.5 ppm assessed as insect total fecundity; assay type: functional, organism-based; conditions: Larval stage
Encarsia inaron [42] = experiment: Insecticidal activity against Encarsia inaron treated at pupal stages at 62.5 ppm assessed as insects eggs level per day (reference value: 2.37 egg/day); assay type: functional, Pupal stage
Encarsia inaron [43] = experiment: Insecticidal activity against Encarsia inaron treated at adult stages at 23.37 ppm assessed as insect longevity (reference value: 8.95 days); assay type: functional
Encarsia inaron [44] = experiment: Insecticidal activity against Encarsia inaron treated at larval stages assessed as finite rate of increase at 62.5 ppm; assay type: functional, organism-based; conditions: Larval stage
Encarsia inaron [45] = experiment: Insecticidal activity against Encarsia inaron treated at larval stages at 62.5 ppm assessed as sex ratio (reference value: 0.72 no unit); assay type: functional, Larval stage
Encarsia inaron [46] = experiment: Insecticidal activity against Encarsia inaron treated at adult stages at 23.37 ppm assessed as sex ratio (reference value: 0.72 no unit); assay type: functional
Encarsia inaron [47] = experiment: Insecticidal activity against Encarsia inaron treated at larval stages assessed as intrinsic rate of increase at 62.5 ppm; assay type: functional, organism-based; conditions: Larval stage
Encarsia inaron [48] = experiment: Insecticidal activity against Encarsia inaron treated at pupal stages assessed as finite rate increase at 62.5 ppm; assay type: functional, organism-based; conditions: Pupal stage
Encarsia inaron [49] = experiment: Insecticidal activity against Encarsia inaron treated at pupal stages assessed as net reproductive rate at 62.5 ppm; assay type: functional, organism-based; conditions: Pupal stage
Encarsia inaron [50] = experiment: Insecticidal activity against Encarsia inaron treated at larval stages assessed as mean generation time at 62.5 ppm; assay type: functional, organism-based; conditions: Larval stage
Encarsia inaron [51] = experiment: Insecticidal activity against Encarsia inaron treated at pupal stages at 62.5 ppm assessed as insect longevity (reference value: 8.7 days); assay type: functional, Pupal stage
Encarsia inaron [52] = experiment: Insecticidal activity against Encarsia inaron treated at larval stages at 62.5 ppm assessed as insects eggs level per day (reference value: 2.98 egg/day); assay type: functional, Larval stage
Encarsia inaron [53] = experiment: Insecticidal activity against Encarsia inaron treated at larval stages at 62.5 ppm assessed as insect longevity (reference value: 5.60 days); assay type: functional, Larval stage
Encarsia inaron [54] = experiment: Insecticidal activity against Encarsia inaron infested cucumber plants assessed as adult parasitoid emergence from parasitised host nymphs treated at larval stages at 350 g ai/L SC measured 10 days post compound treatment (reference value: 79.60 %); assay type: functional, Larval stage
Encarsia inaron [55] = experiment: Insecticidal activity against Encarsia inaron treated at adult stages at 23.37 ppm assessed as insect total fecundity; assay type: functional, organism-based

Question: What does the source list for `CC(C)N1C(=O)N(c2ccccc2)CS/C1=N\C(C)(C)C` [BUPROFEZIN]?
Answer: Activity (Encarsia inaron [1]): inactive; Time (Encarsia inaron [2]): 8.5 days; Activity (Encarsia inaron [3]): inactive; Time (Encarsia inaron [4]): 8.9 days; Activity (Encarsia inaron [5]): inactive; Activity (Encarsia inaron [6]): inactive; Activity (Encarsia inaron [7]): inactive; Activity (Encarsia inaron [8]): 2.6%; Activity (Encarsia inaron [9]): inactive; Activity (Encarsia inaron [10]): inactive; Ratio (Encarsia inaron [11]): 0.49; Time (Encarsia inaron [12]): 7.05 days; LC50 (Encarsia inaron [13]): inactive; Ratio (Encarsia inaron [14]): 0.44; Activity (Encarsia inaron [15]): inactive; Activity (Encarsia inaron [16]): 4.58 day⁻¹; Activity (Encarsia inaron [17]): 63.4%; Activity (Encarsia inaron [18]): Active; Activity (Encarsia inaron [19]): 3.55 day⁻¹; Activity (Encarsia inaron [20]): inactive; Activity (Encarsia inaron [21]): inactive; Activity (Encarsia inaron [22]): 1.24 day⁻¹; Activity (Encarsia inaron [23]): inactive; Activity (Encarsia inaron [24]): inactive; Activity (Encarsia inaron [25]): inactive; Ratio (Encarsia inaron [26]): 0.44; Activity (Encarsia inaron [27]): inactive; Activity (Encarsia inaron [28]): Active

Question: For `O=[N+]([O-])/N=C1\NCCN1Cc1ccc(Cl)nc1` [IMIDACLOPRID], which Activity (Encarsia inaron [29]) is on record?
Answer: inactive

Question: And the Activity (Encarsia inaron [30])?
Answer: inactive

Question: And the Ratio (Encarsia inaron [31])?
Answer: 0.59

Question: What about the Activity (Encarsia inaron [32]) of the same compound?
Answer: Active

Question: What about the Activity (Encarsia inaron [33]) of the same compound?
Answer: inactive

Question: And the Activity (Encarsia inaron [34])?
Answer: inactive

Question: What about the Activity (Encarsia inaron [35]) of the same compound?
Answer: Active

Question: What about the Activity (Encarsia inaron [36]) of the same compound?
Answer: Active

Question: And the Activity (Encarsia inaron [37])?
Answer: 15%

Question: And the Activity (Encarsia inaron [38])?
Answer: inactive

Question: What about the Activity (Encarsia inaron [39]) of the same compound?
Answer: inactive

Question: What about the Activity (Encarsia inaron [40]) of the same compound?
Answer: 4.75 day⁻¹

Question: And the Activity (Encarsia inaron [41])?
Answer: Active

Question: What about the Activity (Encarsia inaron [42]) of the same compound?
Answer: 2.77 day⁻¹

Question: What about the Time (Encarsia inaron [43]) of the same compound?
Answer: 6.85 days

Question: And the Activity (Encarsia inaron [44])?
Answer: Active

Question: What about the Ratio (Encarsia inaron [45]) of the same compound?
Answer: 0.54

Question: And the LC10 (Encarsia inaron [13])?
Answer: 3.3 ppm

Question: And the LC90 (Encarsia inaron [13])?
Answer: 13407 ppm

Question: What about the LC50 (Encarsia inaron [13]; Encarsia inaron, 48 h) of the same compound?
Answer: 209 mg/L (≈ 817 µM)

Question: And the Ratio (Encarsia inaron [46])?
Answer: 0.52

Question: What about the Activity (Encarsia inaron [47]) of the same compound?
Answer: Active

Question: And the Activity (Encarsia inaron [48])?
Answer: inactive

Question: What about the Activity (Encarsia inaron [49]) of the same compound?
Answer: Active

Question: And the Activity (Encarsia inaron [50])?
Answer: Active

Question: And the Time (Encarsia inaron [51])?
Answer: 6.7 days

Question: What about the Activity (Encarsia inaron [52]) of the same compound?
Answer: 5.44 day⁻¹

Question: And the Time (Encarsia inaron [53])?
Answer: 13.2 days

Question: And the Activity (Encarsia inaron [54])?
Answer: 7%

Question: What about the Activity (Encarsia inaron [55]) of the same compound?
Answer: Active
